Test results as given in patent US8765729B2, “Cancer therapy” (Aeolus Sciences, Inc., priority 2001, dated 2014).

Key:
[1] = SOD activity (cytochrome C method); assay type: biochemical
Description: FIGS. 1A-1H show the structures of certain generic and specific definitions of compounds suitable for use in the present invention. With reference to FIG. 1C, mimetics of the invention can be of Formula I or Formula II, or dimeric forms thereof, an example of a dimeric form being shown in FIG. 1D. With reference to FIG. 1H, the SOD activities of certain of the depicted compounds are shown in Table 1 (as measured by the cytochrome C method): […]

[2] = test system: B16 melanoma tumor; experiment: B16 melanoma tumor growth in mice treated with SOD mimetic; assay type: in vivo; details: 6 mg/kg i.p.
Experimental: FIGS. 2A-2C. (FIG. 2A) B16 melanoma tumor treated with SOD mimetic. The mimetic was 10113 at a dose of 6 mg/kg given intraperitoneally qd for 5 days. (FIG. 2B) Mammary adenocarcinoma treated with SOD mimetic. 10113 was given intraperitoneally at a dose of 6 mg/kg/day for 16 days. Radiation therapy (RT), 21 Gy, was given on day 8 or 9. (FIG. 2C) Fischer 344 rats with subcutaneously implanted R3230 AC mammary adenocarcinomas received Radiation treatment (21 Gy Day 1), AEOL 10113 (6 mg/kg/day IP Day 1 to 20), the combination Radiation and AEOL 10113 (as above), or Control treatment.
The effect of the MnTE-2-PyP (manganese(III) tetrakis(N-ethylpyridinium-2-yl)porphyrin) on tumor growth and radiation response in two tumor models has been tested. […] The effect of the SOD mimetic. MnTE-2-PyP, on tumor growth and radiation response has been tested in a rat model.

[3] = test system: R3230 mammary adenocarcinoma cells in Z-chambers; experiment: Tumor development in Z-chambers; assay type: in vivo, Fisher-344 rats; details: 6 mg/kg i.p. 24 hours before implantation of 2.5 mil./ml cells
Experimental: FIG. 4. Animals were pretreated with different SOD mimetics (6 mg/kg i.p.) 24 hours before implantation of 2.5 mil./ml R3230 mammary adenocarcinoma cells in Z-chambers.
These chambers are constructed from customized plexi-glass rings with internal diameter of 10 mm and have a pore on the side. The two open surfaces are covered by nylon mesh (pore size 180 microns, Millipore, Mass.) and glued to the rings. Fibrinogen (Human fibrinogen, plasminogen depleted, CalBiochem) is prepared in DMEM, Gibco BRL) and a concentration of 4-5 mg/ml is utilized for the studies. Although the Fischer rats used in the study are immune competent, this purified batch of fibrinogen has been recognized to be very well conserved across species lines. It has already been shown that early angiogenic response to human fibrinogen is very similar to rat fibrinogen in fibrin gel chambers. The two different types of fibrinogen have also been tested in the Z-Chambers and no difference was found in angiogenic and healing response. Human fibrinogen was used.
The Fibrin Z-Chambers have fibrinogen solution poured inside the chamber through the pore and followed by 2 units of thrombin. […]
The Z-Chambers were harvested on day 1 or 12 post surgery. […] The depth of either the tumor tissue (tumor growth) or granulation tissue (wound healing) was measured with calipers on the 4×6 inch print. […]

[4] = test system: tumor angiogenesis, R230 mammary adenocarcinoma cells in Z-chambers; experiment: Tumor angiogenesis in Z-chambers (microvessel density); assay type: in vivo, Fisher-344 rats; details: 6 mg/kg i.p. 24 hours before implantation
Experimental: FIG. 5. Antiangiogenesis: Animals were pretreated with different SOD mimetics (6 mg/kg i.p.) 24 hours before implantation of 2.5 mil./ml R230 mammary adenocarcinoma cells in Z-chambers.
Immunohistochemistry was carried out using procedures described by Hsu et al (Hsu et al., j. Histochem. Cytochem. 29:577-580 (1981)). Briefly, paraffin embedded tissues were sectioned (5 microns) and antigen retrieval was performed using citrate buffer from Biogenex (San Ramon, Calif.). Tissues were treated with primary antibody against tissue transglutaminase (TG100, 1:10, endothelial cell marker, non-reactive to Factor XIIIa) (Neomarkers, Calif.) for 1 hour at 37° C. Secondary antibody (Jackson ImmunoResearch. PA) and tertiary. (Vector, Calif.) antibodies were incubated for 25 minutes at 37° C. and the location of the reaction was visualized with 3,3-diaminobenzidine tetrahydrochloride Sigma (St. Louis, Mo.). Slides were counterstained with hematoxylin and mounted with coverslips. Controls for the immunohistochemistry were treated with mouse IgG instead of primary antibody and were negative in any reactivity. […] Microvessel density was calculated as described by Weidner et al (Weidner et al, J. New Engl. J. Med. 324:1-8 (1991)). Briefly, six hot spots or areas with highest vessels marked by the vessel marker at a high power field (400×) per sample section were selected and number of blood vessel counted. […]

[5] = test system: A549 cells; experiment: 3H-thymidine incorporation (DNA synthesis) in A549 cells; assay type: cell-based, human; details: 4 μM, 24 hours
Experimental: FIG. 16. A549 cells were grown 50% confluence in 24 well plates in complete media. Cells were then incubated for 24 hours with the above concentrations of drug and ^3H-thymidine (to assess DNA synthesis). After three washes in PBS, the cells were homogenized and the radioactivity counted. At 4 μM MnTE-2-PyP, there was a 50% inhibition of incorporation of ^3H-thymidine.

## CC[n+]1ccccc1-c1c2nc(c(-c3cccc[n+]3CC)c3ccc([n-]3)c(-c3cccc[n+]3CC)c3nc(c(-c4cccc[n+]4CC)c4ccc1[n-]4)C=C3)C=C2.[Mn+3] [Compound 10113, manganese(III)tetrakis(N-ethylpyridinium-2-yl)porphyrin]
[1]
  SOD activity: 10,648 U/mg
[2]; mice with B16 melanoma
  inhibition of tumor growth: significant inhibition of tumor growth
[2]; control group 2 days
  Tumor doubling time: 4 days
[3]
  tumor development: Significant (p<0.01) inhibition of tumor development
[4]
  tumor angiogenesis: Significant inhibition of tumor angiogenesis
[5]
  inhibition of incorporation of 3H-thymidine: 50%
